According to patent US20250034216A1, “STEREOSELECTIVE COVALENT LIGANDS FOR ONCOGENIC AND IMMUNOLOGICAL PROTEINS” (The Scripps Research Institute, priority 2021, published 2025):

Experiments:
[1] = biological target: T1, WAPL_C1133 (Homo sapiens, UniProt Q7Z5K2); experiment: IA-DTB cysteine engagement; format: binding; settings: 22Rv1 cells, 20 μM probe, 1 h, relative to DMSO
T1 construct: endogenous in cells; host or cells: 22Rv1
T1 sequence (Q7Z5K2 1-1190): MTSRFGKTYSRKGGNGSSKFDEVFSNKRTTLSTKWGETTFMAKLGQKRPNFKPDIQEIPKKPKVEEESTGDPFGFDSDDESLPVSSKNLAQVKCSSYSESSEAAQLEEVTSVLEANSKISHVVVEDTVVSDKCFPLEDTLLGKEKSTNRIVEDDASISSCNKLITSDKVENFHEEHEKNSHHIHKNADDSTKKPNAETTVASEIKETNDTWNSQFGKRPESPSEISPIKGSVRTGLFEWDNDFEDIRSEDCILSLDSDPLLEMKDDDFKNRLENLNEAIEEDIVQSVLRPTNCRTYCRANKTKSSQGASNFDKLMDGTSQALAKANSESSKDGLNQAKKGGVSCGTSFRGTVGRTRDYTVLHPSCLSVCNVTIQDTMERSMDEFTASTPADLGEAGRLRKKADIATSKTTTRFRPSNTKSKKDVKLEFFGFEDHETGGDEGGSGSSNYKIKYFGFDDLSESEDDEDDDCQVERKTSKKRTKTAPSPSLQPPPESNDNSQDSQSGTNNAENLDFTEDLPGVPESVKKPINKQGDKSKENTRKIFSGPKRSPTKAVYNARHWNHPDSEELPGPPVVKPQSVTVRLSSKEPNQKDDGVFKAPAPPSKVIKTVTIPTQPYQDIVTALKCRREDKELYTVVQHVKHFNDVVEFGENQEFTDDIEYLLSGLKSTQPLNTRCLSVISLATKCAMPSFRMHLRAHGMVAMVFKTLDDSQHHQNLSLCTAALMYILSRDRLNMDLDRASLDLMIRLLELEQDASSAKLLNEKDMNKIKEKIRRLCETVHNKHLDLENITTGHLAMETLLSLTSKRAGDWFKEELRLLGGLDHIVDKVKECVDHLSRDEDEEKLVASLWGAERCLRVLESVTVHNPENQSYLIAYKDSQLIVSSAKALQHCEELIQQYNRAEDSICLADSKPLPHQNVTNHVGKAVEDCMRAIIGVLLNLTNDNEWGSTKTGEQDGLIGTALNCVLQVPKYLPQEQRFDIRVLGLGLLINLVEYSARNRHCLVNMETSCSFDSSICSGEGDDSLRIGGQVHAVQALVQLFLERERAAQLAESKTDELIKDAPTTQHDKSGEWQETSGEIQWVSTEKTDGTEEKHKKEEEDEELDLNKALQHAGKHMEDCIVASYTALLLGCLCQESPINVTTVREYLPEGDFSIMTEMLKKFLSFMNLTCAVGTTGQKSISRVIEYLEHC
In short: (§1)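 Read-out is TMT-based cysteine engagement, expressed as each reporter ion intensity divided by the average of the DMSO channels. Before that, probe-treated cell lysates were capped with IA-DTB, digested, enriched on streptavidin and TMT-tagged. PSMs with DMSO summed intensity <10,000 or DMSO CV >0.5 were excluded.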

[2] = biological target: T2, NCAPD2_C439 (Homo sapiens, UniProt Q15021); experiment: IA-DTB cysteine engagement; format: binding; settings: 22Rv1 cells, 20 μM probe, 1 h, relative to DMSO; for % engagement NCAPD2_C439: 60 min, 20 µM
T2 construct: endogenous in cells; host or cells: 22Rv1
T2 sequence (Q15021 whole entry): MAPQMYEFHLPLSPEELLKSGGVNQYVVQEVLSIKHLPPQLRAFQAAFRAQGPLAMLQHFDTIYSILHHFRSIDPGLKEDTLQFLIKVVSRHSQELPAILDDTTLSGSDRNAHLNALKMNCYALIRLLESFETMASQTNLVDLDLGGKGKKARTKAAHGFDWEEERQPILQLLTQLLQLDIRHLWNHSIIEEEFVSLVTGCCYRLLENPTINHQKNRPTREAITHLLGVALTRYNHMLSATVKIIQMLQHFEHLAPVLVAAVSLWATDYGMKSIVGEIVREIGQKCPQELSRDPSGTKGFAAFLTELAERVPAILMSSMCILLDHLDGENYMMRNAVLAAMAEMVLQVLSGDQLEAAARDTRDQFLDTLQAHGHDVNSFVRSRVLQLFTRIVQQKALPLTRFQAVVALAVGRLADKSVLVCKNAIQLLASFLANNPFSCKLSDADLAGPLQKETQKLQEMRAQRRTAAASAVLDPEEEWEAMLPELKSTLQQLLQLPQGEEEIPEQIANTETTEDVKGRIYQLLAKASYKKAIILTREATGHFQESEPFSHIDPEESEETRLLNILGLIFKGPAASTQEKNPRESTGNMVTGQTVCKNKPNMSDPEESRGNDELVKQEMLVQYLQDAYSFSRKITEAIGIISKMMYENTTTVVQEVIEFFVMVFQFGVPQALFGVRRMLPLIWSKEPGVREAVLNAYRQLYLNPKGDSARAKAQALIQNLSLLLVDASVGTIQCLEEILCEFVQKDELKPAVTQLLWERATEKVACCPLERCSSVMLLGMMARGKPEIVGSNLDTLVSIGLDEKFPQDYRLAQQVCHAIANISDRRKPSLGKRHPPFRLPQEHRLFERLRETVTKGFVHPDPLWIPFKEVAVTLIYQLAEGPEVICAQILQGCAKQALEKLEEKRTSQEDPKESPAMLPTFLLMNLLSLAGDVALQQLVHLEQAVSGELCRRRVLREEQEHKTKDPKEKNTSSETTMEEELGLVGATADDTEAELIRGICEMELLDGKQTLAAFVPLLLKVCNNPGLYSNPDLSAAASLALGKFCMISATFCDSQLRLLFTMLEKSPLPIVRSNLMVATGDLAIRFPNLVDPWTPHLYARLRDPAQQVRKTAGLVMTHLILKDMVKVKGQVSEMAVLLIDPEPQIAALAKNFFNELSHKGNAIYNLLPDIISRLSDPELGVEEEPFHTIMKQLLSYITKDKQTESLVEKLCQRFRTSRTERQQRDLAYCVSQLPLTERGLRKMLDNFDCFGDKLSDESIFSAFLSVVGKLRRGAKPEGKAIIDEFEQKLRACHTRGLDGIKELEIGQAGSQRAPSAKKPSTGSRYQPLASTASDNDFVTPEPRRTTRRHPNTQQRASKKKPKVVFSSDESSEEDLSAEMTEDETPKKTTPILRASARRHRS
In short: as §1

SMILES: C=CC(=O)N1C[C@H](c2ccc(Br)cc2)[C@H]1C(=O)Nc1cccc2cccnc12 [MY-3A, (2S,3S)-1-acryloyl-3-(4-bromophenyl)-N-(quinolin-8-yl)azetidine-2-carboxamide]
- % engagement WAPL_C1133 [1]: 78.5%
- % engagement NCAPD2_C439 [2]: 21.5%

SMILES: C=CC(=O)N1C[C@H](c2ccc(Br)cc2)[C@@H]1C(=O)Nc1cccc2cccnc12 [MY-1B, (2R,3S)-1-acryloyl-3-(4-bromophenyl)-N-(quinolin-8-yl)azetidine-2-carboxamide]
- % engagement WAPL_C1133 [1]: 34%
- inhibition at 20 µM [2]: 20%

SMILES: C=CC(=O)N1C[C@H](c2ccc(Br)cc2)[C@H]1C(=O)Nc1cccc2cccnc12 [MY-3B, (2S,3S)-1-acryloyl-3-(4-bromophenyl)-N-(quinolin-8-yl)azetidine-2-carboxamide]
- % engagement WAPL_C1133 [1]: 46%
- % engagement NCAPD2_C439 [2]: 80%

SMILES: C=CC(=O)N1C[C@@H](c2ccc(Br)cc2)[C@H]1C(=O)Nc1cccc2cccnc12 [MY-1A, (2S,3R)-1-acryloyl-3-(4-bromophenyl)-N-(quinolin-8-yl)azetidine-2-carboxamide]
- % engagement WAPL_C1133 [1]: 18%
- inhibition at 20 µM [2]: 29.5%
